Laboratory results taken from US20260234217A1, “USE OF BMP RECEPTOR ALK1 INHIBITORS IN OSTEOARTHRITIS THERAPIES” (The Regents of the University of California, priority 2023, published 2026).
“Also recorded” adds a separate entry of the source.

Experiments:
[1] = test system: BMP-9-induced BMP reporter activity by ALK5-deficient ATDC5 cells; experiment: BMP-9-induced BMP signal luciferase reporter in ALK5-deficient chondrocytic cells; type: cell-based, mouse; conditions: in the presence of 2 ng/mL of rhBMP-9; read-out: median effective concentration (EC50) to block BMP activity in vitro
Description: Ligands that bind to ALK1 at physiological concentrations are BMP9 and BMP10 (Chen et al, PNAS 2013). […] ActRIIB has 300-fold higher affinity for BMP9 than does ActRIIA (Townson et. al., J Biol Chem. 2012 Aug. 10; 287(33):27313-2). The formation of ALK1-ActRIIB complexes is associated with the elevation of levels of pSmad1/5-mediated BMP signaling in cartilage (Wang et al., PNAS 2009)[4]. […] Furthermore, since loss of ALK5 causes OA and ALK5 antagonizes ALK1, these above results provide evidence that blocking ALK1 signaling may prevent OA development.
As described herein, the ALK1 receptor normally binds to ALK5 and/or ActRIIA in healthy chondrocytes, but in OA conditions ALK5 expression levels decline in chondrocytes and ALK1 tends to complex with ActRIIB; this ALK1/ActRIIB complex has high affinity for BMP9 and BMP10. […] BMP signaling output is monitored by a BMP signal luciferase reporter plasmid which contains a Smad1/5/8 response element in the promoter region. The biological efficacy of ALK1 antagonists is measured by their ability to inhibit BMP-9-induced BMP reporter activity by ALK5-deficient chondrocytic cells, such as ALK5-deficient ATDC5 cells. […]

subchondral bone plate = experiment: Subchondral bone plate analysis in DMM mice; type: in vivo, mouse; conditions: after DMM surgery
Description: Dissected knee joints underwent Micro-CT analysis using the Skyscan 1172 in vivo μCT scanner (Bruker micro-CT, Kontich, Belgium) at 55 kV and 181 μA, with a resolution of 10 μm. The raw data was then translated into two-dimensional cross-sectional gray scale image slices using NRecon (Bruker microCT, Kontich, Belgium). Structural parameters were then acquired from the two-dimensional images using a CT Analyzer (CT-AN, v1.10.9.0, Bruker microCT, Kontich, Belgium), including bone volume fraction (BV, mm3). The total knee osteophyte volume from the end of the distal femur to the end of the proximal tibia was compared between knees that underwent sham surgery, DMM surgery treated with PBS, DMM surgery treated with BMP-KI, or DMM surgery treated with ALK1-Fc. Average osteophyte volume was analyzed with Prism 9 Software (GraphPad) using two-way ANOVA and Tukey's multiple comparisons test post-hoc. MicroCT and data analysis was performed by an experienced investigator blinded to genotype/treatment. For each experimental group, five joint sections per animal were analyzed from the medial compartment. […] All quantifications were conducted in Fiji is Just ImageJ (FIJI, version 2.9.0). Quantified subchondral bone thickness was analyzed with Prism 9 Software (GraphPad) using two-way ANOVA and Tukey's multiple comparisons test post-hoc.

adult growth plate = experiment: SOFG histology of proximal tibial growth plate in DMM mice; type: in vivo, mouse; conditions: week 8 after DMM surgery
Description: FIG. 10. […] Sagittal sections of the proximal tibial growth plate were stained with Safranin-O/Fast Green (SOFG) to visualize proteoglycan (red) in the growth plate, subchondral bone (top blue), and trabecular bone (bottom blue) at week 8 after DMM or Sham surgery. […] Alk1^Col2 mice underwent DMM surgery (DMM+Alk1^Col2). WT control mice (lacking Col2a1-Cre) underwent sham surgery and received PBS treatment (Sham+PBS). (n=5/group).
Knee joint samples were harvested and fixed in 4% Paraformaldehyde for 3 days, and subsequently decalcified in formic acid (Statlab; 1414-32) for 3 days and embedded in paraffin. Sagittal sections 7 micrometers in thickness were taken and stained using Safranin-O (Sigma-Aldrich; S8884-25G), fast green (Sigma-Aldrich; F7258-25G), and hematoxylin (Fisherbrand; 245-656) using a standard histology protocol. Images were taken with the Olympus BX60 brightfield microscope using a 10× objective lens. Representative sections throughout the medial and lateral portion of side were chosen for histological analysis, resulting in 5 sections being imaged for both portions of the joint.

[2] = test system: osteophytes in the DMM joint; experiment: Micro-CT total knee osteophyte volume in DMM mice; type: in vivo, mouse
Procedure: Mice (C57BL/6J) were purchased from The Jackson Laboratory. All mice were housed on a 12-hour light/dark cycle with unrestricted access to standard mouse food and water. The DMM model of injury induced OA was performed on mice at 12 weeks of age by opening the joint capsule and transecting the medial meniscotibial ligament in the right knee, destabilizing the medial meniscus(48). A sham operation was performed on the left knee of each mouse by observing the medial meniscotibial ligament but not transecting it. Mice were administered carprofen 5 mg/kg (Zoetis; 1041283) subcutaneously 30 minutes prior to surgery, immediately post-surgery, and 24 hours post-surgery to minimize pain.
Treatments were initiated either 1 day after DMM surgery once a week for 8 weeks, or 1 month after DMM surgery twice a week for 4 weeks. Mice were sacrificed at 20 weeks of age (2 months after surgery). To understand the level of articular cartilage damage 1 month after DMM surgery, a cohort of mice was sacrificed at 16 weeks old (FIG. 4).
Dissected knee joints underwent Micro-CT analysis using the Skyscan 1172 in vivo μCT scanner (Bruker micro-CT, Kontich, Belgium) at 55 kV and 181 μA, with a resolution of 10 μm. […] Average osteophyte volume was analyzed with Prism 9 Software (GraphPad) using two-way ANOVA and Tukey's multiple comparisons test post-hoc. […]

COc1cc(-c2cc(-c3ccc(N4CCNCC4)cc3)cnc2C)cc(OC)c1OC [LDN-214117]
EC50 [1]: 40 nM | total volume of the subchondral plates (subchondral bone plate; week 8, microCT): no significant impact | thickness (thickening) of the subchondral bone plate (subchondral bone plate; week 8, listed as BMP-KI): no significant impact; also recorded: no observed effect | impact on adult growth plate maintenance (adult growth plate): no obvious impact | osteophyte volume (MicroCT) ([2]; applied after a 1-month delay): significant reduction in osteophyte volume | osteophyte volume (MicroCT) ([2]; treated immediately after surgery, compared to vehicle, week 8): reduced osteophyte volume
